{"source": "ChEMBL document CHEMBL3259599", "about": "“Novel colchicine-site binders with a cyclohexanedione scaffold identified through a ligand-based virtual screening approach” (J Med Chem, 2014)", "key": {"Liver": {"tested_on": "Liver", "assay": "(§1) Metabolic stability in 50% mouse liver extract assessed as compound remaining at 100 uM measured after 3 hrs by HPLC analysis", "type": "ADME, tissue-based", "conditions": "3 h, 100 µM"}, "MDA-MB-231 [1]": {"tested_on": "MDA-MB-231", "assay": "Antiinvasive activity against human MDA-MB-231 cells at 2 to 10 uM after 17 hrs by Transwell assay", "type": "functional, cell-based"}, "[2]": {"assay": "Antiproliferative activity against HMEC1 after 4 days by coulter counter analysis", "type": "functional", "conditions": "Homo sapiens, HMEC-1, 96 h"}, "Serum": {"tested_on": "Serum", "assay": "(§2) Metabolic stability in 10% human serum assessed as compound remaining at 100 uM measured after 3 hrs by HPLC analysis", "type": "ADME", "conditions": "serum, 3 h, 100 µM"}, "HeLa": {"tested_on": "HeLa", "assay": "Antiproliferative activity against human HeLa cells after 4 days by coulter counter analysis", "type": "functional, cell-based", "conditions": "96 h"}, "[3]": {"assay": "Antiproliferative activity against BAEC after 3 days by coulter counter analysis", "type": "functional", "conditions": "Bos taurus, 72 h"}, "Tubulin (Bos taurus) [4]": {"target": "T1, Tubulin (Bos taurus) (UniProt Q6B856+Q862L2+Q862F3)", "assay": "Displacement of MTC from calf brain tubulin colchicine binding site at 20 uM by fluorescence spectroscopic analysis"}, "MDA-MB-231 [5]": {"tested_on": "MDA-MB-231", "assay": "Antimigratory activity against human MDA-MB-231 cells at 2 to 10 uM after 17 hrs by Transwell assay", "type": "functional, cell-based"}, "[6]": {"assay": "Antiproliferative activity against MBEC after 3 days by coulter counter analysis", "type": "functional, Mus musculus"}, "L1210": {"tested_on": "L1210", "assay": "Antiproliferative activity against mouse L1210 cells after 48 to 96 hrs by coulter counter analysis", "type": "functional, cell-based"}, "CCRF-CEM": {"tested_on": "CCRF-CEM", "assay": "Antiproliferative activity against human CEM cells after 48 to 96 hrs by coulter counter analysis", "type": "functional, cell-based"}, "[7]": {"assay": "as §1", "type": "ADME, tissue-based", "conditions": "50% mouse liver extract, read-out: Stability"}, "HMEC-1 [8]": {"tested_on": "HMEC-1", "assay": "Induction of apoptosis in HMEC1 at 0.3 uM after 24 hrs by propidium iodide staining-based flow cytometric analysis", "type": "functional", "conditions": "Homo sapiens"}, "[9]": {"assay": "Cell cycle arrest in HMEC1 cells assessed as accumulation at G2/M phase at 1 uM after 24 hrs by propidium iodide staining-based flow cytometric analysis", "type": "functional", "conditions": "Homo sapiens, HMEC-1"}, "[10]": {"assay": "as §2", "type": "ADME", "conditions": "10% human serum, read-out: Stability"}, "HMEC-1 [11]": {"tested_on": "HMEC-1", "assay": "Antivascular activity in HMEC1 cells assessed as destruction of cord like structure at 3 uM after 90 mins by matrigel assay", "type": "functional, cell-based", "conditions": "Homo sapiens"}, "Tubulin (Bos taurus) [12]": {"target": "T1, Tubulin (Bos taurus)", "assay": "Displacement of R-PT from calf brain tubulin at 25 degC by fluorescence spectroscopic analysis"}, "MDA-MB-231 [13]": {"tested_on": "MDA-MB-231", "assay": "Antiinvasive activity against human MDA-MB-231 cells at 0.4 uM after 17 hrs by Transwell assay", "type": "functional, cell-based"}, "MDA-MB-231 [14]": {"tested_on": "MDA-MB-231", "assay": "Antiproliferative activity against human MDA-MB-231 cells at 0.4 uM after 17 hrs", "type": "functional, cell-based"}, "[15]": {"assay": "Cell cycle arrest in HMEC1 cells assessed as accumulation at subG1 phase at 1 uM after 24 hrs by propidium iodide staining-based flow cytometric analysis", "type": "functional", "conditions": "Homo sapiens, HMEC-1"}, "Tubulin (Homo sapiens)": {"target": "Tubulin (Homo sapiens) (UniProt P68371+Q9H4B7+P0DPH7+P68366+Q13509+Q71U36+P04350+Q3ZCM7+P07437+P68363+Q9BQE3+Q6PEY2+Q13885+Q9BVA1+Q9BUF5)", "assay": "Binding affinity to tubulin in human MDA-MB-231 cells assessed as inhibition of mitotic spindle formation at 1 uM after 8 hrs by DAPI staining-based fluorescence microscopic analysis", "type": "cell-based"}, "MDA-MB-231 [16]": {"tested_on": "MDA-MB-231", "assay": "Competitive binding affinity to beta-tubulin in human MDA-MB-231 cells assessed as inhibition of protein-N/N'-ethylene-bis(iodoacetamide) adduct formation at 10 uM preincubated for 16 hrs followed by N/N'-ethylene-bis(iodoacetamide) formation measured after 1.5 hrs by Western blot analysis", "type": "cell-based"}, "MDA-MB-231 [17]": {"tested_on": "MDA-MB-231", "assay": "Antimigratory activity against human MDA-MB-231 cells at 0.4 uM after 17 hrs by Transwell assay", "type": "functional, cell-based"}}, "note": "Calls of active or inactive are those of the source. The calls are words filed in the database; no cut-off is given here."}
{"compound": "CCC(Nc1ccccc1O)=C1C(=O)CC(c2ccccc2)CC1=O", "note": "(stereo not given)", "values": [{"measurement": "Stability", "setting": "Liver", "result": "Unstable"}, {"measurement": "inhibition", "setting": "MDA-MB-231 [1]", "result": "inactive"}, {"measurement": "IC50", "setting": "[2]", "result": 22, "unit": "µM"}, {"measurement": "Stability", "setting": "Serum", "result": "Unstable"}, {"measurement": "IC50", "setting": "HeLa", "result": 11, "unit": "µM"}, {"measurement": "IC50", "setting": "[3]", "result": 35, "unit": "µM"}, {"measurement": "inhibition", "setting": "Tubulin (Bos taurus) [4]", "result": "Active"}, {"measurement": "inhibition", "setting": "MDA-MB-231 [5]", "result": "inactive"}, {"measurement": "IC50", "setting": "[6]", "result": 13, "unit": "µM"}, {"measurement": "IC50", "setting": "L1210", "result": 13, "unit": "µM"}, {"measurement": "IC50", "setting": "CCRF-CEM", "result": 15, "unit": "µM"}]}
{"compound": "COc1ccccc1NC(C)=C1C(=O)CC(c2ccccc2)CC1=O", "note": "(stereo not given)", "values": [{"measurement": "remaining at 3 h, 100 µM", "setting": "[7]", "result": "> 90", "unit": "%"}, {"measurement": "Activity", "setting": "HMEC-1 [8]", "result": "Active"}, {"measurement": "IC50", "setting": "[2]", "result": 0.09, "unit": "µM"}, {"measurement": "Activity", "setting": "[9]", "result": "Active"}, {"measurement": "remaining at 3 h, 100 µM", "setting": "[10]", "result": 70, "unit": "%"}, {"measurement": "IC50", "setting": "HeLa", "result": 0.18, "unit": "µM"}, {"measurement": "IC50", "setting": "[3]", "result": 0.09, "unit": "µM"}, {"measurement": "inhibition", "setting": "Tubulin (Bos taurus) [4]", "result": "Active"}, {"measurement": "Activity", "setting": "HMEC-1 [11]", "result": "Active"}, {"measurement": "Ka", "setting": "Tubulin (Bos taurus) [12]", "result": 9.6, "unit": "×10⁶ /M"}, {"measurement": "inhibition", "setting": "MDA-MB-231 [13]", "result": "Active"}, {"measurement": "Activity", "setting": "MDA-MB-231 [14]", "result": "Active"}, {"measurement": "Activity", "setting": "[15]", "result": "Active"}, {"measurement": "IC50", "setting": "[6]", "result": 0.12, "unit": "µM"}, {"measurement": "inhibition", "setting": "Tubulin (Homo sapiens)", "result": "Active"}, {"measurement": "inhibition", "setting": "MDA-MB-231 [16]", "result": "Active"}, {"measurement": "IC50", "setting": "L1210", "result": 0.16, "unit": "µM"}, {"measurement": "inhibition", "setting": "MDA-MB-231 [17]", "result": "Active"}, {"measurement": "IC50", "setting": "CCRF-CEM", "result": 0.18, "unit": "µM"}]}
